According to ChEMBL document CHEMBL1141021, “Anthranilimide-based glycogen phosphorylase inhibitors for the treatment of Type 2 diabetes: 2. Optimization of serine and threonine ether amino acid residues” (Bioorg Med Chem Lett, 2009):

Legend:
Format in all cases: ADME, organism-based
[1] = Clearance in Sprague-Dawley rat at 10 mg/kg, po or […], iv; conditions: in vivo
Rattus norvegicus = assay: Dose normalized AUC (0 to infinity) in Sprague-Dawley rat at 1 mg/kg, po; set-up: dose 1 mg/kg, route oral, time infinity; conditions: in vivo
[2] = Oral bioavailability in Sprague-Dawley rat at 10 mg/kg; conditions: in vivo
[3] = Volume of distribution at steady state in Sprague-Dawley rat at 10 mg/kg, po or […], iv; conditions: in vivo, read-out: Vdss
[4] = Half life in Sprague-Dawley rat at 10 mg/kg, po or […], iv; conditions: in vivo

A clearance [1] of 13 mL/min/kg, an AUC (Rattus norvegicus) of 514 ng·h/mL and a bioavailability [2] of 40% were found for `Cc1cc(C)c(NC(=O)Nc2cc3ccccc3cc2C(=O)N[C@H](C(=O)O)[C@@H](C)OC(C)(C)C)c(C)c1` in this work. The Vd [3] was 0.5 L/kg and the half-life [4] was 3 h.

A clearance [1] of 26 mL/min/kg, an AUC (Rattus norvegicus) of 256 ng·h/mL and a bioavailability [2] of 17% were found for `Cc1cc(C)c(NC(=O)Nc2cc3ccccc3cc2C(=O)N[C@@H](COC(C)(C)C)C(=O)O)c(C)c1` in this work. It also gave a Vd [3] of 1.9 L/kg and a half-life [4] of 4 h.

A clearance [1] of 4 mL/min/kg, an AUC (Rattus norvegicus) of 320 ng·h/mL and a bioavailability [2] of 8% were found for `CCCC[C@H](NC(=O)c1cc2ccccc2cc1NC(=O)Nc1c(C)cc(C)cc1C)C(=O)O` in this work. It also gave a Vd [3] of 0.6 L/kg and a half-life [4] of 2.8 h.
